The values below come from paper PMC9967152 (International Journal of Molecular Sciences, 2023).

A short description of series [1]: mouse plasma. As to conditions: 37 °C, up to 24 h.
Series [2] in a line: rat liver lysosomal homogenate. The following applies: male Wistar rats, 37 °C, up to 72 h.
Series [3] in a line: incomplete DMEM. The following applies: 37 °C, up to 3 h.
Series [4] has as its system MDA-MB-453 human metastatic epithelial breast carcinoma cells. Nature of the series: MTT assay, in vitro cytostatic effect. As to conditions: 24 h treatment at 3.125–25 µM, then cultured up to 72 h, mean ± SD, n = 2 independent experiments with four parallels. Format: cell-based. The method, then: (§1) Cells were distributed into 96-well tissue culture plates with an initial cell number of 5.0 × 10^3 per well. After 24 h incubation at 37 °C, the cells were treated with the compounds in 200 µL final volume containing 1.0 v/v% DMSO and 10% H2O. […] After incubation, the cells were washed twice with a serum-free medium. To determine the in vitro cytostatic effect, the cells were further cultured up to 72 h in a 10% serum-containing medium. A solution of 3-(4,5-dimethylthiazol-2-yl)-2,5-diphenyltetrazolium bromide and MTT-solution, (45 µL, 2 mg/mL, final concentration: […]) were added to each well. The respiratory chain [67] and other electron transport systems reduce MTT, and thereby form non-water-soluble violet formazan crystals within the cell. […] After 3 h of incubation, the cells were centrifuged for 5 min at 1000 g and the supernatant was removed. The obtained formazan crystals were dissolved in DMSO (100 μL) and the optical density (OD) of the samples was measured at λ = 540 and 620 nm, respectively, using ELISA Reader (iEMS Reader, Labsystems, Finland). OD620 values were subtracted from OD540 values. The percentage of cytostasis was calculated by using the following equation:Cytostatic effect (%) = [1 − (ODtreated/ODcontrol)] × 100(1)
(§2) Values of ODtreated and ODcontrol correspond to the optical densities of the treated and the control cells, respectively. In each case, two independent experiments were carried out with four parallel measurements. The 50% inhibitory concentration (IC50) values were determined from the dose–response curves. The curves were defined using Microcal™ Origin 2018 software: cytostasis was plotted as a function of concentration, fitted to a sigmoidal curve, and based on this curve, the half-maximal inhibitory concentration (IC50) value was determined. IC50 represents the concentration of a compound that is required for 50% inhibition in vitro and is expressed in micromolar units.
For orientation: Tetrazolium assays rely on reduction of a dye to a coloured formazan, in cell work by metabolically active cells.

The test system of series [5] is PC-3 human prostate adenocarcinoma cells. Nature of the series: MTT assay, in vitro cytostatic effect. The class given is cell-based. As to conditions: 24 h treatment at 3.125–25 µM, then cultured up to 72 h, mean ± SD, n = 2 independent experiments with four parallels. As to the method:
as §1, §2

Series [6] relates to MDA-MB-231 human breast adenocarcinoma cells. Nature of the series: MTT assay, in vitro cytostatic effect. Format: cell-based. As to conditions: 24 h treatment at 3.125–25 µM, then cultured up to 72 h, mean ± SD, n = 2 independent experiments with four parallels. As to the method:
as §1, §2

The nature of series [7]: Stability in mouse plasma. Format: in vitro ADME. As to conditions: 37 °C, HPLC-MS. The method, then:
Due to their low IC50 values and internalisation on the tested cell lines, conjugates L1, L5 and L6 were chosen for investigation of their stability in mouse plasma, as potential candidates for in vivo studies. They were incubated at a concentration of 10 µM, with mouse plasma for 24 h at 37 °C. Samples were collected at 0 h, 30 min, 1 h, 2 h, 4 h, 8 h and 24 h and analysed by HPLC-MS. […] Furthermore, after 2 h, L1 starts to release the toxic metabolite Dau=Aoa-Leu-OH, whereas this happens only after 24 h for L5 and L6, in a considerably low amount (see Supplementary Materials, Figures S18–S20).
The conjugates were dissolved in ddH2O containing 10% DMSO (stock solution: 100 μM) and diluted with mouse plasma to a final concentration of 10 μM. The mixture was incubated and stirred at 37 °C, 600 rpm, and 30 µL aliquots were collected after 0 min, 0.5, 1, 2, 4, 8 and 24 h, in triplicates. Then, to each plasma sample, 90 µL of 0.1% formic acid containing MeCN was added, and the samples were frozen at −25 °C for ≥30 min to aid protein precipitation. Large plasma proteins were removed by centrifugation (15 min, 5000× g, 4 °C). Aliquots of 50 µL supernatant were diluted with an equal volume of ddH2O + 0.1% formic acid and analysed by LC–MS. Control measurements were performed in the same manner (10 μM bioconjugate in 100% ddH2O).

Series [8] can be described thus: Stability in incomplete (serum-free) DMEM. The class given is in vitro ADME. As to conditions: 25 µM, 37 °C, 600 rpm, LC–MS, n = 2. The method, then: The conjugates were incubated in incomplete DMEM for 3 h (similarly to the internalisation studies) or in 2.5% FBS containing DMEM for 24 h (conditions for the MTT assay). […] No significant loss of L1 and L5 (<20%) or L6 (<30%) was observed after 3 h (see Supplementary Materials, Figure S17).
DMSO stock solutions of the conjugates (2.5 mM) were diluted in DMEM free from or containing 2.5% FBS, to a final concentration of 25 μM. The mixture was incubated and stirred at 37 °C, 600 rpm, and 30 µL aliquots were collected after 0 min, 0.5, 1, 2, 4, 8 and 24 h, in duplicates. Then, to each sample, 90 µL of 0.1% formic acid containing MeCN was added and the samples were frozen at −25 °C for ≥30 min to aid protein precipitation. Large FBS components were removed by centrifugation (15 min, 5000 g, 4 °C). Aliquots of 50 µL supernatant were diluted with an equal volume of ddH2O + 0.1% formic acid and analysed by LC–MS. Control measurements were performed in the same manner (25 μM bioconjugate in 100% ddH2O).

The subject of series [9] is healthy NOD-SCID mice. Kind of series: In vivo chronic toxicity study in healthy mice. The following applies: 20 mg/kg calculated on Dau content, every 5th day, four treatments, n = 3. Details: species or system mouse. The method, then: Based on the stability assay performed in murine plasma, we decided to investigate L5 and L6 in vivo. To determine the dosage for the tumour growth inhibition experiment, we performed a chronic toxicity study using healthy mice. PDCs were administered every 5th day in three different doses calculated on the Dau content: 5 mg/kg, 10 mg/kg, and 20 mg/kg (Figure 4A). […] When 10 mg/kg drug was applied, the fitness of mice was not affected more than that of mice that received 5 mg/kg.
The toxicity experiments were done in healthy NOD-SCID mice. Treatments were administered every 5th day. Three different concentrations were tested, 5 mg/kg, 10 mg/kg and 20 mg/kg, respectively. Each group consisted of three mice. Mouse weight was monitored five times per week.

The subject of series [10] is PC-3 human prostatic adenocarcinoma xenograft in NOD-SCID mice. Kind of series: In vivo tumour growth inhibition, subcutaneous PC-3 xenograft. The arrangement: species or system mouse. The following applies: 10 mg/kg on Dau content i.p. every 5th day, n = 8. The method, then:
The testing of the antitumour conjugates was carried out in a murine xenograft model. It was established by inoculating subcutaneously 100 µL of cell suspension of PC-3 prostate cancer cells with a concentration of 2 × 10^7 cells/mL.
Once the tumour volume reached 60 mm^3, mice were randomised and assigned to different groups for each treatment, respectively 0.9% saline as control, free daunorubicin, L5, and L6. Each group consisted of eight mice. Peptide–drug conjugates were injected intraperitoneally every 5th day, five times in total (daunorubicin dosage of 10 mg/kg for each treatment). In the case of free daunorubicin, two treatments were administered at the same time points as the first two treatments with conjugates, with a dosage of 1 mg/kg, the maximum tolerated dose (MTD). Weight and tumour size of mice were monitored throughout the whole experiment, two times per week. On day 33, mice were euthanized, and primary tumour, heart, lung, liver and spleen were harvested and stored in 4% formalin (Molar Chemicals, Halásztelek, Hungary). After 2–3 days of incubation in formalin, tissue samples were examined macroscopically. Organs and primary tumours from the different treatment groups were weighed and inspected under a stereomicroscope to see any occurrent changes in morphology compared to the controls.

“Also recorded” adds a separate entry of the source. Where a SMILES comes first, the peptide text is derived from it. [ ]: non-standard residue; d: D form. The star is where a group is joined. Daunorubicin(13-NOCH2CO) = COc1cccc2c1C(=O)c1c(O)c3c(c(O)c1C2=O)C[C@@](O)(C(C)=NOCC(=O)*)C[C@@H]3O[C@H]1C[C@H](N)[C@H](O)[C@H](C)O1; Sta = CC(C)C[C@H](N)[C@@H](O)CC(=O)O; Nle = CCCC[C@H](N)C(=O)O; Aib = CC(C)(N)C(=O)O; βAla = NCCC(=O)O

In the case of Dau=Aoa-LRRY-fQWAV-β-Ala-H-Sta-Nle, the fragment found result in series [1] is “Dau=Aoa-Leu-OH (M1), minor, 24 h”. Besides, in [2], the cleaved bond result is recorded as “Leu-Arg, 15 min” and the fragment found result is listed as “Dau=Aoa-LR-OH; also recorded: H2N-RY-fQWAV-βAla-H-Sta-Nle-NH2; also recorded: H2N-Y-fQWAV-βAla-H-Sta-Nle-NH2; also recorded: H2N-RY-fQW-OH”. Moreover, in [3], the not cleaved result is recorded as “highly stable for 1.5 h; no significant loss (<30%) after 3 h”.
As to Dau=Aoa-LRRY-QWAVGHL-Nle, in series [1], the fragment found result is “Dau=Aoa-Leu-OH (M1), minor, 2 h”. In addition, in series [2], the cleaved bond result is listed as “Leu-Arg, 15 min” and the fragment found result is “Dau=Aoa-LR-OH; also recorded: Dau=Aoa-LRR-OH”. Besides, the not cleaved result in series [3] is “highly stable for 1.5 h; no significant loss (<20%) after 3 h”.
As to Dau=Aoa-LRRY-fQWAV-β-Ala-H-Aib-Nle, in series [2], the cleaved bond result was “Leu-Arg, 15 min” and the fragment found entry is “Dau=Aoa-LR-OH; also recorded: H2N-RY-fQWAV-β-Ala-H-Aib-Nle-NH2; also recorded: H2N-Y-fQWAV-β-Ala-H-Aib-Nle-NH2; also recorded: H2N-RY-fQW-OH”.
As to `CCCC[C@H](NC(=O)C(C)(C)NC(=O)[C@H](Cc1c[nH]cn1)NC(=O)CCNC(=O)[C@@H](NC(=O)[C@H](C)NC(=O)[C@H](Cc1c[nH]c2ccccc12)NC(=O)[C@H](CCC(N)=O)NC(=O)[C@@H](Cc1ccccc1)NC(=O)[C@H](Cc1ccc(O)cc1)NC(=O)[C@H](CCCNC(=N)N)NC(=O)[C@H](CCCNC(=N)N)NC(=O)[C@H](CC(C)C)NC(=O)CON=C(C)[C@]1(O)Cc2c(O)c3c(c(O)c2[C@@H](O[C@H]2C[C@H](N)[C@H](O)[C@H](C)O2)C1)C(=O)c1c(OC)cccc1C3=O)C(C)C)C(N)=O` ({Daunorubicin(13-NOCH2CO)}-LRRY[dF]QWAV[βAla]H[Aib][Nle]-NH2), the time to release of active metabolite Dau=Aoa-Leu-OH was less than 30 min.
For Dau=Aoa-LRRY-fQWAVGH-Sta-L, in series [1], the fragment found result was “Dau=Aoa-Leu-OH (M1), minor, 24 h”. Besides, in [2], the cleaved bond result is recorded as “Leu-Arg, 15 min” and the fragment found entry is “Dau=Aoa-LR-OH; also recorded: H2N-RY-fQWAVGH-Sta-L-NH2; also recorded: H2N-VGH-Sta-L-NH2; also recorded: H2N-GH-Sta-L-NH2; also recorded: H2N-RY-fQW-OH; also recorded: H2N-RYfQ-OH”. In addition, the not cleaved result in [3] is listed as “highly stable for 1.5 h; no significant loss (<20%) after 3 h”.
As for `CC(=O)N[C@H](Cc1ccccc1)C(=O)N[C@@H](CCC(N)=O)C(=O)N[C@@H](Cc1c[nH]c2ccccc12)C(=O)N[C@@H](C)C(=O)N[C@H](C(=O)NCC(=O)N[C@@H](Cc1c[nH]cn1)C(=O)N[C@@H](CC(C)C)[C@@H](O)CC(=O)N[C@@H](CC(C)C)C(N)=O)C(C)C` [FP1], the IC50 in series [4], in [5] and in series [6] was greater than 100 µM each time.
For `CCCC[C@H](NC(=O)C[C@H](O)[C@H](CC(C)C)NC(=O)[C@H](Cc1c[nH]cn1)NC(=O)CCNC(=O)[C@@H](NC(=O)[C@H](C)NC(=O)[C@H](Cc1c[nH]c2ccccc12)NC(=O)[C@H](CCC(N)=O)NC(=O)[C@@H](Cc1ccccc1)NC(C)=O)C(C)C)C(N)=O` [FP2] (Ac-[dF]QWAV[βAla]H[Sta][Nle]-NH2), the IC50 in series [4], in series [5] and in series [6] was greater than 100 µM each time.
Take `CCCC[C@H](NC(=O)C[C@H](O)[C@H](CC(C)C)NC(=O)[C@H](Cc1c[nH]cn1)NC(=O)CCNC(=O)[C@@H](NC(=O)[C@H](C)NC(=O)[C@H](Cc1c[nH]c2ccccc12)NC(=O)[C@H](CCC(N)=O)NC(=O)[C@@H](Cc1ccccc1)NC(=O)[C@H](Cc1ccc(O)cc1)NC(=O)[C@H](CCCNC(=N)N)NC(=O)[C@H](CCCNC(=N)N)NC(=O)[C@H](CC(C)C)NC(=O)CON=C(C)[C@]1(O)Cc2c(O)c3c(c(O)c2[C@@H](O[C@H]2C[C@H](N)[C@H](O)[C@H](C)O2)C1)C(=O)c1c(OC)cccc1C3=O)C(C)C)C(N)=O` [L6, (Dau=Aoa)-LRRY-BBN[D-Phe6, β-Ala11, Sta13, Nle14]] ({Daunorubicin(13-NOCH2CO)}-LRRY[dF]QWAV[βAla]H[Sta][Nle]-NH2): the “Time after which release of the toxic metabolite Dau=Aoa-Leu-OH starts” value in [7] (10 µM, for L5 and L6 in a considerably low amount) is on record as 24 h. In series [7] (600 rpm, n = 3, read-out: Intact conjugate after one day (24 h)), the remaining at 24 h, 10 μM was greater than 80%. In addition, in series [8], the “Loss of conjugate after 3 h” value is given as less than 30%. In addition, the “Decrease in mouse weight” value in [9] is recorded as 10–15%. For the same molecule, in [10], the “Toxicity during the tumour growth inhibition experiment” value was “lower toxicity compared to free daunorubicin”.
